In patent US5583132A, “Sulfonylalkanoylamino hydroxyethylamino sulfamic acids useful as retroviral protease inhibitors” (priority 1995, dated 1996):
pIC50: −log10 of the molar value.

Legend:
in vitro = assay type: cell-based; conditions: human, cem cells
Experimental: Methods, 20, 309-321 (1988). Assays can be performed in 96-well tissue culture plates. […] Several wells receive culture medium without virus (uninfected control cells). […] Either azidothymidine (AZT) or dideoxyinosine (ddI) is included as a positive drug control. […] DMSO is added to all control wells at an appropriate concentration. […] To each sample is added 100 μl of 10% sodium dodecylsulfate in 0.01N HCl to lyse the cells, and samples are incubated overnight.

HIV protease = target: T1, HIV protease (Human immunodeficiency virus type 1 group M subtype B, UniProt P04585); experiment: HIV protease enzyme assay; assay type: biochemical
T1 construct: HIV protease is diluted in the assay buffer to a final enzyme concentration of 12.3 nanomolar, based on a molecular weight of 10,780
Excerpt: The compounds of the present invention are effective HIV protease inhibitors. Utilizing an enzyme assay as described below, the compounds set forth in the examples herein disclosed inhibited the HIV enzyme. The preferred compounds of the present invention and their calculated IC50 (inhibiting concentration 50%, i.e., the concentration at which the inhibitor compound reduces enzyme activity by 50%) values are shown in Table 17. The enzyme method is described below. The substrate is 2-Ile-Nle-Phe(p-NO2)-Gln-ArgNH2. The positive control is MVT-101 (Miller, M. et al, Science, 246, 1149 (1989)] The assay conditions are as follows:
20 mM sodium phosphate, pH 6.4
The above described substrate is dissolved in DMSO, then diluted 10 fold in assay buffer. Final substrate concentration in the assay is 80 μM.
HIV protease is diluted in the assay buffer to a final enzyme concentration of 12.3 nanomolar, based on a molecular weight of 10,780.
The final concentration of DMSO is 14% and the final concentration of glycerol is 18%. The test compound is dissolved in DMSO and diluted in DMSO to 10x the test concentration; 10 μl of the enzyme preparation is added, the materials mixed and then the mixture is incubated at ambient temperature for 15 minutes. The enzyme reaction is initiated by the addition of 40 μl of substrate. The increase in fluorescence is monitored at 4 time points (0, 8, 16 and 24 minutes) at ambient temperature. Each assay is carried out in duplicate wells.

inhibition at 10 µM (HIV protease) [%] | SMILES | other results
– | CC(C)CN(C[C@@H](O)[C@H](Cc1ccccc1)NC(=O)OCc1ccccc1)S(=O)(=O)Nc1ccccc1 [E] | CC50 at 168 h (in vitro): 7.5 µM
– | CC(C)CN(C[C@@H](O)[C@H](Cc1ccccc1)NC(=O)[C@H](C)CS(C)(=O)=O)S(=O)(=O)NC(C)(C)C [Example 14] | pIC50 (HIV protease; Table 9, HIV protease enzyme assay, pH 6.4, substrate 80 μM): 6.85
60 | CC(C)(C)NS(=O)(=O)N(C[C@@H](O)[C@H](Cc1ccccc1)NC(=O)OCc1ccccc1)C1CCCCC1 [K] | –
38 | CC(C)CN(C[C@@H](O)[C@H](Cc1ccccc1)NC(=O)OCc1ccccc1)S(=O)(=O)NCCOCc1ccccc1 [L] | –
